Earlier results in patent US8097726B2, “Huperzine a compound for treatment of alzheimer's disease” (priority 2006, dated 2012).

Legend:
[1] = rapidly eliminated from the kidneys
[2] = administered orally at 0.2 mg twice a day for 8 weeks; AD patients

C/C=C1\[C@H]2C=C(C)C[C@]1(N)c1ccc(=O)[nH]c1C2 [huperzine A]
half-life in plasma [1]: 4 to 5 h | patients with significant improvement in memory, cognition and behavior [2]: 58%
